# Reference: article PMC5608353 (PLoS ONE, 2017)
# Values joined by “and” are separate entries in the source; they are usually repeats but may differ in a detail not shown here. Equal values may be shown once. Read-outs that look alike come from different tables or passages of the source. Where a SMILES comes first, the peptide text is derived from it. Bridges are numbered along the chain shown (N, C = ends).
# Experiments:
# C. perfringens CVCC 46 [1] = type: cell-based, Clostridium perfringens type A
# C. perfringens CVCC 46 [2] = test system: C. perfringens CVCC 46
# C. perfringens CVCC 46 [3] = assay: microbe, parasite or virus in culture; details: Clostridium perfringens, CVCC46, 18 h
# C. perfringens CVCC 51 [4] = assay: microbe, parasite or virus in culture; details: Clostridium perfringens, CVCC51, 18 h
# C. perfringens CVCC 1137 [5] = assay: microbe, parasite or virus in culture; details: Clostridium perfringens, CVCC1137, 18 h
# C. perfringens JT1 [6] = assay: microbe, parasite or virus in culture; details: Clostridium perfringens, JT1, 18 h
# C. perfringens JZ10 [7] = assay: microbe, parasite or virus in culture; details: Clostridium perfringens, JZ10, 18 h
# C. perfringens JC2 [8] = assay: microbe, parasite or virus in culture; details: Clostridium perfringens, JC2, 18 h
# C. perfringens CVCC 46 [9] = assay: microbe, parasite or virus in culture; details: Clostridium perfringens, CVCC46, read-out: MICa (MIC of drug used alone)
# C. perfringens CVCC 46 [10] = type: cell-based, Clostridium perfringens type A; remark: listed apart in the source
# [11] = test system: C. perfringens CVCC 46 genomic DNA; type: binding, Clostridium perfringens type A
# [12] = test system: C. perfringens genomic DNA; type: binding, Clostridium perfringens
# C. perfringens CVCC 46 [13] = type: cell-based, Clostridium perfringens type A; remark: listed apart in the source
# C. perfringens CVCC 46 [14] = test system: C. perfringens CVCC 46; remark: listed apart in the source
# C. perfringens CVCC 51 [15] = test system: C. perfringens CVCC 51
# C. perfringens CVCC 1137 [16] = test system: C. perfringens CVCC 1137
# C. perfringens JT1 [17] = test system: C. perfringens JT1
# C. perfringens JZ10 [18] = test system: C. perfringens JZ10
# C. perfringens JC2 [19] = test system: C. perfringens JC2
# [20] = test system: C. perfringens type C CVCC 61 cells; details: cited from earlier work
# [21] = test system: human erythrocytes, epidermal keratinocytes, A549 cells, murine L929 fibroblasts, porcine intestinal epithelial cell line ZYMSIEC02; details: cited from earlier work
# [22] = CVCC 46, 2×MIC, 1×10^5 CFU/mL, 37°C, colony counts
# [23] = CVCC 46, broth microdilution, 1×10^5 CFU/mL, anaerobic 37°C, 12~18 h, triplicate
# [24] = CVCC 46, broth microdilution, anaerobic 37°C, 12~18 h, triplicate
# [25] = CVCC 51, broth microdilution, anaerobic 37°C, 12~18 h
# [26] = CVCC 1137, broth microdilution, anaerobic 37°C, 12~18 h
# [27] = JT1, broth microdilution, anaerobic 37°C, 12~18 h
# [28] = JZ10, broth microdilution, anaerobic 37°C, 12~18 h
# [29] = JC2, broth microdilution, anaerobic 37°C, 12~18 h
# [30] = CVCC 46, chequerboard, drug alone, triplicate
molecule,measurement,setting,value
CN(C)[C@@H]1C(O)=C(C(N)=O)C(=O)[C@@]2(O)C(O)=C3C(=O)c4c(O)ccc(Cl)c4[C@@](C)(O)[C@H]3C[C@@H]12 [Aureomycin],Time to 99.9% reduction of bacterial counts,C. perfringens CVCC 46 [1]; [22],2~4 h
same,Bacterial regrowth in time-kill curve,"C. perfringens CVCC 46 [1]; CVCC 46, 2×MIC, followed for 10 h",regrowth of C. perfringens strain CVCC 46 was observed
same,MICC (MIC of drug used in combination),"C. perfringens CVCC 46 [2]; combination Aureomycin-MP1102, CVCC 46",2.09 µM
same,FIC,"C. perfringens CVCC 46 [2]; combination Aureomycin-MP1102, MIC in combination / MIC alone",0.25
same,MICC (MIC of drug used in combination),"C. perfringens CVCC 46 [2]; combination Aureomycin-NZ2114, CVCC 46",4.18 µM
same,FIC,"C. perfringens CVCC 46 [2]; combination Aureomycin-NZ2114, MIC in combination / MIC alone",0.5
same,MBC,C. perfringens CVCC 46 [3],8.36 µM
same,MIC,C. perfringens CVCC 46 [3],4.18 µM
same,MIC,C. perfringens CVCC 51 [4],1.04 µM
same,MIC,C. perfringens CVCC 1137 [5],0.52 µM
same,MIC,C. perfringens JT1 [6],16.7 µM
same,MIC,C. perfringens JZ10 [7],16.7 µM
same,MIC,C. perfringens JC2 [8],16.7 µM
same,MIC,C. perfringens CVCC 46 [9],8.36 µM
CCC[C@@H]1C[C@@H](C(=O)N[C@@H]([C@H]2O[C@H](SC)[C@H](O)[C@@H](O)[C@H]2O)[C@@H](C)O)N(C)C1 [Lincomycin],Time to 99.9% reduction of bacterial counts,C. perfringens CVCC 46 [1]; [22],2~4 h
same,MICC (MIC of drug used in combination),"C. perfringens CVCC 46 [2]; combination Lincomycin-MP1102, CVCC 46",4.34 µM
same,FIC,"C. perfringens CVCC 46 [2]; combination Lincomycin-MP1102, MIC in combination / MIC alone",0.5
same,MICC (MIC of drug used in combination),"C. perfringens CVCC 46 [2]; combination Lincomycin-NZ2114, CVCC 46",4.34 µM
same,FIC,"C. perfringens CVCC 46 [2]; combination Lincomycin-NZ2114, MIC in combination / MIC alone",0.5
same,MBC,C. perfringens CVCC 46 [3],8.68 µM
same,MIC,C. perfringens CVCC 46 [3],8.68 µM
same,MIC,C. perfringens CVCC 51 [4],4.3 µM
same,MIC,C. perfringens CVCC 1137 [5],2.17 µM
same,MIC,C. perfringens JT1 [6],2.2 µM
same,MIC,C. perfringens JZ10 [7],> 278 µM
same,MIC,C. perfringens JC2 [8],> 278 µM
same,MIC,C. perfringens CVCC 46 [9],8.68 µM
"CC[C@H](C)[C@@H]1NC(=O)[C@H](CO)NC(=O)[C@H](CCCCN)NC(=O)[C@@H]2CSSC[C@@H](C(=O)N[C@@H](Cc3ccc(O)cc3)C(=O)O)NC(=O)[C@H](CCCCN)NC(=O)[C@@H]3CSSC[C@H](NC(=O)[C@H](CCCCN)NC(=O)[C@H](C(C)C)NC(=O)[C@H](CC(=O)O)NC(=O)[C@H](CC(=O)O)NC(=O)[C@H](CCC(=O)O)NC(=O)[C@H](CCC(N)=O)NC(=O)[C@H](Cc4c[nH]c5ccccc45)NC(=O)[C@@H]4CCCN4C(=O)CNC(=O)[C@H](CC(N)=O)NC(=O)[C@@H](NC(=O)CNC(=O)[C@H](Cc4ccccc4)NC(=O)CN)CSSC[C@H](NC(=O)[C@H](Cc4ccc(O)cc4)NC(=O)CNC(=O)CNC(=O)[C@H](CCCCN)NC(=O)[C@H](Cc4ccc(O)cc4)NC(=O)CNC(=O)[C@H](CCCCN)NC1=O)C(=O)N[C@@H](C)C(=O)N[C@@H](CCCCN)C(=O)NCC(=O)NCC(=O)N[C@@H](Cc1ccccc1)C(=O)N[C@@H](C(C)C)C(=O)N3)C(=O)N[C@@H](Cc1c[nH]cn1)C(=O)N[C@@H](CC(N)=O)C(=O)N[C@@H](Cc1c[nH]cn1)C(=O)N2 [MP1102] (H-GFGCNGPWQEDDVKCHNHCKSIKGYKGGYCAKGGFVCKCY-OH; disulfide 4-30, 15-37, 19-39)",Bacterial regrowth in time-kill curve,C. perfringens CVCC 46 [1],no bacterial regrowth
same,Time to 99.9% reduction of bacterial counts,C. perfringens CVCC 46 [1],≤ 1 h
same,"PI-stained percentages of cells, range over time",C. perfringens CVCC 46 [10],36.5~96.7%
same,Binding to genomic DNA (gel retardation),[11],interacted with MDR C. perfringens CVCC 46 genomic DNA
same,Peptide/DNA mass ratio for complete retardation of DNA migration,[11],> 10.0
same,Change of CD spectrum of genomic DNA,[12],DNA ellipticity intensity decreased
same,Ratio of cells in phase I,C. perfringens CVCC 46 [13],8.14% and 13.65%
same,MBC,"C. perfringens CVCC 46 [14]; CVCC 46, 18 h",0.91 µM
same,MIC,"C. perfringens CVCC 46 [14]; CVCC 46, 18 h",0.91 µM
same,MIC,"C. perfringens CVCC 51 [15]; CVCC 51, 18 h",0.91 µM
same,MIC,"C. perfringens CVCC 1137 [16]; CVCC 1137, 18 h",1.82 µM
same,MIC,"C. perfringens JT1 [17]; JT1, 18 h",0.46 µM
same,MIC,"C. perfringens JZ10 [18]; JZ10, 18 h",>14.5 µM
same,MIC,"C. perfringens JC2 [19]; JC2, 18 h",>14.5 µM
same,MICa (MIC of drug used alone),C. perfringens CVCC 46 [2],1.82 µM
same,"FICI, range over the tested antibiotics",C. perfringens CVCC 46 [2]; CVCC 46,0.375~1.0
same,PI-stained percentages of cells,[20],3.11~5.67%
CC[C@H](C)[C@@H]1NC(=O)[C@H](CO)NC(=O)[C@H](CCCCN)NC(=O)[C@@H]2CSSC[C@@H](C(=O)N[C@@H](Cc3ccc(O)cc3)C(=O)O)NC(=O)[C@H](CCCCN)NC(=O)[C@@H]3CSSC[C@H](NC(=O)[C@H](CCC(N)=O)NC(=O)[C@H](CCSC)NC(=O)[C@H](CC(=O)O)NC(=O)[C@H](CC(=O)O)NC(=O)[C@H](CCC(=O)O)NC(=O)[C@H](CC(=O)O)NC(=O)[C@H](Cc4c[nH]c5ccccc45)NC(=O)[C@@H]4CCCN4C(=O)CNC(=O)[C@H](CC(N)=O)NC(=O)[C@@H](NC(=O)CNC(=O)[C@H](Cc4ccccc4)NC(=O)CN)CSSC[C@H](NC(=O)[C@H](Cc4ccc(O)cc4)NC(=O)CNC(=O)CNC(=O)[C@H](CCCCN)NC(=O)[C@H](Cc4ccc(O)cc4)NC(=O)CNC(=O)[C@H](CCCCN)NC1=O)C(=O)N[C@@H](C)C(=O)N[C@@H](CCCCN)C(=O)NCC(=O)NCC(=O)N[C@@H](Cc1ccccc1)C(=O)N[C@@H](C(C)C)C(=O)N3)C(=O)N[C@@H](Cc1c[nH]cn1)C(=O)N[C@@H](CC(N)=O)C(=O)N[C@@H](Cc1c[nH]cn1)C(=O)N2 [Plectasin],MBC,"C. perfringens CVCC 46 [14]; CVCC 46, 18 h",1.81 µM
same,MIC,"C. perfringens CVCC 46 [14]; CVCC 46, 18 h",1.81 µM
same,MIC,"C. perfringens JT1 [17]; JT1, 18 h",0.23 µM
same,MIC,"C. perfringens JZ10 [18]; JZ10, 18 h",>14.5 µM
same,MIC,"C. perfringens JC2 [19]; JC2, 18 h",>14.5 µM
same,Hemolysis / cytotoxicity,[21],non-hemolytic or non-cytotoxic
CN[C@H](CC(C)C)C(=O)N[C@H]1C(=O)N[C@@H](CC(N)=O)C(=O)N[C@H]2C(=O)N[C@H]3C(=O)N[C@H](C(=O)N[C@H](C(=O)O)c4cc(O)cc(O)c4-c4cc3ccc4O)[C@H](O)c3ccc(c(Cl)c3)Oc3cc2cc(c3O[C@@H]2O[C@H](CO)[C@@H](O)[C@H](O)[C@H]2O[C@H]2C[C@](C)(N)[C@H](O)[C@H](C)O2)Oc2ccc(cc2Cl)[C@H]1O [Vancomycin],Time to 99.9% reduction of bacterial counts,C. perfringens CVCC 46 [1],8 h
same,FIC,C. perfringens CVCC 46 [2],0.5
same,MICC (MIC of drug used in combination),C. perfringens CVCC 46 [2],0.345 µM
same,MBC,C. perfringens CVCC 46 [3],0.69 µM
same,MIC,C. perfringens CVCC 46 [3],0.69 µM
same,MIC,C. perfringens CVCC 51 [4],0.69 µM
same,MIC,C. perfringens CVCC 1137 [5],0.69 µM
same,MIC,C. perfringens JT1 [6],0.69 µM
same,MIC,C. perfringens JZ10 [7],22.1 µM
same,MIC,C. perfringens JC2 [8],22.1 µM
same,MIC,C. perfringens CVCC 46 [9],0.69 µM
Bacitracin zinc,Time to 99.9% reduction of bacterial counts,C. perfringens CVCC 46 [1]; [22],8 h
same,MIC,C. perfringens CVCC 46 [14]; [23],0.67 µM
same,MBC,C. perfringens CVCC 46 [14]; [24],1.34 µM
same,MIC,C. perfringens CVCC 51 [15]; [25],1.35 µM
same,MIC,C. perfringens CVCC 1137 [16]; [26],1.35 µM
same,MIC,C. perfringens JT1 [17]; [27],0.67 µM
same,MIC,C. perfringens JZ10 [18]; [28],>86.1 µM
same,MIC,C. perfringens JC2 [19]; [29],>86.1 µM
same,MICa (MIC of drug used alone),C. perfringens CVCC 46 [2]; [30],0.67 µM
same,FIC,"C. perfringens CVCC 46 [2]; combination Bacitracin zinc-MP1102, MIC in combination / MIC alone",0.5
same,FIC,"C. perfringens CVCC 46 [2]; combination Bacitracin zinc-NZ2114, MIC in combination / MIC alone",0.25
Virginiamycin,Time to 99.9% reduction of bacterial counts,C. perfringens CVCC 46 [1]; [22],2~4 h
same,MIC,C. perfringens CVCC 46 [14]; [23],0.96 µM
same,MBC,C. perfringens CVCC 46 [14]; [24],0.96 µM
same,MIC,C. perfringens CVCC 51 [15]; [25],0.24 µM
same,MIC,C. perfringens CVCC 1137 [16]; [26],0.48 µM
same,MIC,C. perfringens JT1 [17]; [27],0.46 µM
same,MIC,C. perfringens JZ10 [18]; [28],121.8 µM
same,MIC,C. perfringens JC2 [19]; [29],60.9 µM
same,MICa (MIC of drug used alone),C. perfringens CVCC 46 [2]; [30],0.96 µM
same,MICC (MIC of drug used in combination),"C. perfringens CVCC 46 [2]; combination Virginiamycin-MP1102, CVCC 46",0.12 µM
same,FIC,"C. perfringens CVCC 46 [2]; combination Virginiamycin-MP1102, MIC in combination / MIC alone",0.125
same,MICC (MIC of drug used in combination),"C. perfringens CVCC 46 [2]; combination Virginiamycin-NZ2114, CVCC 46",0.48 µM
same,FIC,"C. perfringens CVCC 46 [2]; combination Virginiamycin-NZ2114, MIC in combination / MIC alone",0.5
